A short description of series [1]: Ratio of drug level in brain to plasma in CD rat at 10 to 70 mg/kg, po administered through gavage measured at 6 hrs. The series is classed as ADME, organism-based. The note with it: read-out: BPR.
A short description of series [2]: Oral bioavailability in Wistar rat at 0.3 mg/kg. The series is classed as ADME, organism-based. The note with it: in vivo.
A short description of series [3]: Oral bioavailability in cynomolgus monkey at 0.3 mg/kg. The note with it: in vivo. The series is classed as ADME, organism-based, Macaca fascicularis.

Molecules are shown by their SMILES.

Turning to `NC(=O)C1(c2ccccc2)CC2CCC(C1)N2C(c1ccccc1Cl)c1ccccc1Cl` (stereo not drawn), in series [1], the Kp at 6 h fell in the range of 0.43 to 0.59.

Take `O=C1NCN(c2ccccc2)C12CCN([C@@H]1CC[C@H]3CCCc4cccc1c43)CC2`: the bioavailability in series [2] came out at 4%; in series [3], 1%.
